Test results: the supplement of paper PMC13207355

Key:
Details in all cases: exposure time: 72 h
E13 [1] = patient-derived glioblastoma stem cells of classical subtype; experiment: surviving fraction (nuclei count normalised to DMSO); higher = more cells surviving (less toxic)
E21 [2] = patient-derived glioblastoma stem cells of mesenchymal subtype; experiment: as above
E28 [3] = patient-derived glioblastoma stem cells of classical subtype; experiment: as above
E31 [4] = patient-derived glioblastoma stem cells of proneural subtype; experiment: as above
E34 [5] = patient-derived glioblastoma stem cells of proneural subtype; experiment: as above
E57 [6] = patient-derived glioblastoma stem cells of mesenchymal subtype; experiment: as above
FT3469 [7] = normal neural stem cell line; experiment: as above
E13 [8] = experiment: phenotypic distance (Euclidean, principal components) from DMSO controls (arbitrary units); higher = stronger morphological change
E21 [9] = experiment: as above
E28 [10] = experiment: as above
E31 [11] = experiment: as above
E34 [12] = experiment: as above
E57 [13] = experiment: as above
FT3469 [14] = experiment: as above
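Throughout, for phenotypic distance (Euclidean, principal components) from DMSO controls: cell Painting imaging in 384-well plates, CellProfiler features reduced to at least 20 principal components, Euclidean distance versus same-plate DMSO vehicle wells (0.1% v/v), median over six images per well.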
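Throughout, for surviving fraction (nuclei count normalised to DMSO): nuclei counted by high-content imaging of Hoechst-stained cells in laminin-coated 384-well plates, relative to 0.1% DMSO vehicle wells, with staurosporine as cell-death control.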

S=c1[nH]cnc2nc[nH]c12 [Mercaptopurine]
Details | phenotypic distance | surviving fraction
E13 [1], 4.1 nM | – | 0.921
E13 [1], 12.3 nM | – | 0.917
E13 [1], 37 nM | – | 0.937
E13 [1], 111.1 nM | – | 1.04
E13 [1], 333.3 nM | – | 0.899
E13 [1], 1000 nM | – | 1.07
E13 [1], 3000 nM | – | 0.933
E13 [8], 4.1 nM | 0.545 | –
E13 [8], 12.3 nM | 0.627 | –
E13 [8], 37 nM | 0.483 | –
E13 [8], 111.1 nM | 0.814 | –
E13 [8], 333.3 nM | 0.609 | –
E13 [8], 1000 nM | 0.518 | –
E13 [8], 3000 nM | 0.658 | –
E21 [2], 4.1 nM | – | 1.09
E21 [2], 12.3 nM | – | 1.04
E21 [2], 37 nM | – | 0.958
E21 [2], 111.1 nM | – | 1.01
E21 [2], 333.3 nM | – | 0.977
E21 [2], 1000 nM | – | 0.922
E21 [2], 3000 nM | – | 1.05
E21 [9], 4.1 nM | 0.78 | –
E21 [9], 12.3 nM | 1.43 | –
E21 [9], 37 nM | 0.81 | –
E21 [9], 111.1 nM | 0.892 | –
E21 [9], 333.3 nM | 0.78 | –
E21 [9], 1000 nM | 1.02 | –
E21 [9], 3000 nM | 0.813 | –
E28 [3], 4.1 nM | – | 0.929
E28 [3], 12.3 nM | – | 1.02
E28 [3], 37 nM | – | 0.893
E28 [3], 111.1 nM | – | 1.13
E28 [3], 333.3 nM | – | 0.931
E28 [3], 1000 nM | – | 0.942
E28 [3], 3000 nM | – | 0.996
E28 [10], 4.1 nM | 0.534 | –
E28 [10], 12.3 nM | 1.01 | –
E28 [10], 37 nM | 0.638 | –
E28 [10], 111.1 nM | 0.681 | –
E28 [10], 333.3 nM | 0.395 | –
E28 [10], 1000 nM | 0.531 | –
E28 [10], 3000 nM | 0.838 | –
E31 [4], 4.1 nM | – | 1.1
E31 [4], 12.3 nM | – | 1.04
E31 [4], 37 nM | – | 0.994
E31 [4], 111.1 nM | – | 1.08
E31 [4], 333.3 nM | – | 1
E31 [4], 1000 nM | – | 1.16
E31 [4], 3000 nM | – | 0.862
E31 [11], 4.1 nM | 0.771 | –
E31 [11], 12.3 nM | 0.551 | –
E31 [11], 37 nM | 0.636 | –
E31 [11], 111.1 nM | 0.699 | –
E31 [11], 333.3 nM | 0.484 | –
E31 [11], 1000 nM | 0.59 | –
E31 [11], 3000 nM | 0.762 | –
E34 [5], 4.1 nM | – | 1.04
E34 [5], 12.3 nM | – | 1.18
E34 [5], 37 nM | – | 1.17
E34 [5], 111.1 nM | – | 1.09
E34 [5], 333.3 nM | – | 0.961
E34 [5], 1000 nM | – | 1.18
E34 [5], 3000 nM | – | 0.823
E34 [12], 4.1 nM | 0.504 | –
E34 [12], 12.3 nM | 0.959 | –
E34 [12], 37 nM | 0.783 | –
E34 [12], 111.1 nM | 0.796 | –
E34 [12], 333.3 nM | 0.438 | –
E34 [12], 1000 nM | 0.992 | –
E34 [12], 3000 nM | 0.809 | –
E57 [6], 4.1 nM | – | 1.14
E57 [6], 12.3 nM | – | 1.06
E57 [6], 37 nM | – | 1.02
E57 [6], 111.1 nM | – | 1.03
E57 [6], 333.3 nM | – | 1.06
E57 [6], 1000 nM | – | 1.11
E57 [6], 3000 nM | – | 1.1
E57 [13], 4.1 nM | 0.611 | –
E57 [13], 12.3 nM | 0.822 | –
E57 [13], 37 nM | 1.19 | –
E57 [13], 111.1 nM | 0.97 | –
E57 [13], 333.3 nM | 0.524 | –
E57 [13], 1000 nM | 0.658 | –
E57 [13], 3000 nM | 0.893 | –
FT3469 [7], 4.1 nM | – | 1.13
FT3469 [7], 12.3 nM | – | 1.18
FT3469 [7], 37 nM | – | 1.05
FT3469 [7], 111.1 nM | – | 1.24
FT3469 [7], 333.3 nM | – | 1.1
FT3469 [7], 1000 nM | – | 1.09
FT3469 [7], 3000 nM | – | 1.18
FT3469 [14], 4.1 nM | 0.501 | –
FT3469 [14], 12.3 nM | 0.977 | –
FT3469 [14], 37 nM | 0.81 | –
FT3469 [14], 111.1 nM | 1.22 | –
FT3469 [14], 333.3 nM | 0.759 | –
FT3469 [14], 1000 nM | 0.781 | –
FT3469 [14], 3000 nM | 0.82 | –
